According to PubChem BioAssay (NCI):
“And” between values parts separate entries of the source, which are not always exact repeats. Equal entries are not always repeated.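 1) Cells in 96-well plates. 2) Compound, 48 h, 5 concentrations. 3) Linear interpolation between surrounding doses. 4) Unreached endpoint = highest concentration. GI50 = concentration required for 50% inhibition of growth. TGI: concentration producing complete growth inhibition.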

Tests used:
Experiment in all cases: NCI-60 cell line screen, 48 h
[1] = test system: A498 renal
[2] = test system: ACHN renal
[3] = test system: HCC-2998 colon
[4] = test system: M14 melanoma
[5] = test system: MCF7 breast
[6] = test system: OVCAR-5 ovarian
[7] = test system: PC-3 prostate
[8] = test system: RXF 393 renal
[9] = test system: SNB-19 CNS
[10] = test system: UACC-257 melanoma

Row | Structure (SMILES) | GI50 [1] | TGI [1] | GI50 [2] | TGI [2] | GI50 [3] | TGI [3] | GI50 [4] | TGI [4] | GI50 [5] | TGI [5] | GI50 [6] | TGI [6] | GI50 [7] | TGI [7] | GI50 [8] | TGI [8] | GI50 [9] | TGI [9] | GI50 [10] | TGI [10]
1 | CN1CCN(C2CCN(C(=O)Nc3cc(Oc4ccc(NC(=O)C5(C(=O)Nc6ccc(F)cc6)CC5)c(F)c4)ccn3)CC2)CC1 | 315 nM | 1.38 µM | 1300 nM | > 10 µM | > 2040 nM | > 10 µM | 639 nM | 1.8 µM | 1090 nM | > 10 µM | 1.58 µM | > 10 µM | 1.01 µM | > 3.84 µM | 918 nM | > 2.4 µM | 354 nM | > 10 µM | 730 nM | 2.27 µM
2 | CCN1CCN(C(=O)[C@@]2(C)CC[C@]3(C)CC[C@]4(C)C(=CC(=O)[C@@H]5[C@@]6(C)CC[C@H](OC7C[C@@H](O)[C@@H](O)C(C)O7)C(C)(C)[C@@H]6CC[C@]54C)[C@@H]3C2)CC1 (some centres not stated) | 8960 nM | 17 µM | 910 nM | 1.69 µM | 2260 nM | 8.94 µM | 1040 nM | 2.19 µM | 1790 nM | 7.54 µM | 1.19 µM | 3.12 µM | 2.47 µM | 9.02 µM | 3730 nM | 11.5 µM | 2260 nM | 8.57 µM | 1650 nM | 6.52 µM
3 | CC/C=C\C[C@H](O)C/C=C1/C(=O)C(Cl)=C[C@@H]1C/C=C\CCCC(=O)OC | 3650 nM | 10.2 µM | 378 nM | 0.849 µM | 701 nM | 2.22 µM | 611 nM | 3.43 µM | 185 nM | 2.44 µM | 0.754 µM | 3.07 µM | 0.54 µM | 2.33 µM | 1090 nM | 3.58 µM | 946 nM | 3.31 µM |  | 
4 | CC1(C)S[C@@H]2[C@H](NC(=O)C3(N)CCCCC3)C(=O)N2[C@H]1C(=O)O |  | > 100 µM |  | > 100 µM |  | > 100 µM |  | > 100 µM |  | > 100 µM |  | > 100 µM |  | > 100 µM |  | > 100 µM |  | > 100 µM |  | > 100 µM
5 | C[N+](C)(C)CC1CCCc2ccccc2C1=O (configuration not stated) |  | 27.6 µM |  | 9.71 µM |  | 45 µM | 7850 nM | 9.49 µM and 19.7 µM | 511 nM | 5.29 µM and 2.23 µM |  | 28.8 µM |  | 30.8 µM | 15800 nM | 30.1 µM |  | 85.6 µM |  | 32.4 µM
6 | Oc1ccc(Nc2ncnc3c2sc2ncccc23)cc1 | 23.6 nM | 1.93 µM | < 10 nM | 1.42 µM | > 33300 nM | > 100 µM | 12 nM | 0.0551 µM | < 10 nM | > 100 µM | 0.0831 µM | > 100 µM | 5.15 µM | > 100 µM | 71 nM | 97 µM | 24.6 nM | > 100 µM | 72.6 nM | > 100 µM
7 | Cn1c(I)c(C#CCO[Si](C)(C)C(C)(C)C)c(=O)[nH]c1=O | 19900 nM | 38 µM | 15900 nM | 29.5 µM | 18600 nM | 34.7 µM | 14000 nM | 28.7 µM | 15000 nM | 33.2 µM | 18 µM | 33 µM | 17 µM | 32.7 µM | 18800 nM | 34.3 µM | > 100000 nM | > 100 µM | 12900 nM | 27.3 µM
8 | O=C(/C=C/c1ccccc1)CCC1C(=O)c2ccccc2C1=O |  | > 100 µM |  | > 100 µM |  | > 100 µM |  | > 100 µM |  | > 100 µM |  | > 100 µM |  | > 100 µM |  | > 100 µM |  | > 100 µM |  | > 100 µM
9 | COc1ccc(Sc2[nH]c(C(C)=O)c3ccccc23)cc1 | 265 nM | 0.848 µM | 16500 nM | 49.6 µM | 11900 nM | 24.4 µM | 11700 nM | 25.1 µM | 12200 nM | 24.6 µM | 17.3 µM | 53.1 µM | 11.1 µM | 28.4 µM | 13600 nM | 39 µM | 11600 nM | 31.2 µM | 15300 nM | 33.3 µM
10 | O=C(Nc1ccc(Br)cc1F)c1cc(F)ccc1O | 172 nM | 0.667 µM | 499 nM | 11.3 µM | 2370 nM | 8.45 µM | 514 nM | 4.07 µM | 1290 nM | 7.14 µM | 3.85 µM | > 100 µM | 1.15 µM | 7.24 µM | 554 nM | 3.1 µM | 419 nM | > 100 µM | 466 nM | 4 µM
11 | CNCc1ccccc1-c1csc([C@@H](C)Nc2nc(C)nc3cc(OC)c(OC)cc23)c1 | 289 nM | 1.92 µM | 1330 nM | 2.62 µM | 1430 nM | 2.9 µM | 1790 nM | 3.35 µM | 1440 nM | 3.19 µM | 3.29 µM | 13.6 µM | 4.01 µM | 12.3 µM | 1310 nM | 2.84 µM | 1840 nM | 6.69 µM | 1820 nM | 3.51 µM
12 | CSc1nc(=O)n(CCC#N)nc1SC |  | > 100 µM |  | > 100 µM |  | 31.9 µM |  | 39.9 µM |  | 9.04 µM |  | > 100 µM |  | > 100 µM |  |  |  | > 100 µM |  | 
13 | COc1cc(Nc2ncccc2C(=O)NCc2cn(Cc3cccc(Oc4ccccc4)c3)nn2)cc(OC)c1 | 4180 nM | > 100 µM | 6900 nM | > 100 µM | 9600 nM | > 100 µM | 4800 nM | > 100 µM |  |  | > 100 µM | > 100 µM | 4.74 µM | > 100 µM | 3770 nM | > 100 µM | 9640 nM | > 100 µM | 4860 nM | > 100 µM
